Data set [1] deals with Haemonchus contortus. Nature of the data set: Nematocidal activity against Haemonchus contortus Haecon 5 strain isolated from helminth-free Merino weaner sheep after 6 days by larval development assay. The format is functional. Particulars: for LC50: Haemonchus contortus, Haecon 5 strain, 144 h, read-out: LD50 (the source's name).
Data set [2] in a line: Cytotoxicity against human DU145 cells after 72 hrs by MTT assay. The format is cell-based, DU-145.
Data set [3] is described as follows: Cytotoxicity against human SJ-G2 cells after 72 hrs by MTT assay. In kind it is cell-based. On the technique in general: Tetrazolium dyes change colour on reduction, which living cells bring about.
A short description of data set [4]: Cytotoxicity against human A431 cells after 72 hrs by MTT assay. The format is cell-based, A-431.
In data set [5] the test system is Haemonchus contortus. Briefly: Nematocidal activity against Haemonchus contortus Haecon 5 strain isolated from helminth-free Merino weaner sheep at 12.5 to 100 uM after 6 days by larval development assay. In kind it is functional, organism-based.
A short description of data set [6]: Cytotoxicity against human H460 cells after 72 hrs by MTT assay. In kind it is cell-based. Particulars: NCI-H460 cells.
Data set [7] in a line: Cytotoxicity against human HT-29 cells after 72 hrs by MTT assay. In kind it is cell-based.
The nature of data set [8]: Cytotoxicity against human SW480 cells after 72 hrs by MTT assay. In kind it is cell-based.
A short description of data set [9]: Cytotoxicity against human A2780 cells after 72 hrs by MTT assay. In kind it is cell-based.
The nature of data set [10]: Cytotoxicity against human BE(2)-C cells after 72 hrs by MTT assay. The format is cell-based.
Data set [11] in a line: Cytotoxicity against human MCF7 cells after 72 hrs by MTT assay. The format is cell-based.

The source made the active and inactive calls. The rule behind the calls is not given here.

Regarding `N#C/C(=C\c1ccc[nH]1)c1ccc(F)cc1`, in the data set on Haemonchus contortus [1], the LD99 came to 50 µM and the LC50 turned out to be 10 µM.

Regarding `CCCCCCCCN1C(=O)[C@@H]2[C@H](C1=O)[C@H]1CC[C@@H]2O1`, in the data set on Haemonchus contortus [1], the LD99 was 80 µM and the LC50 was determined as 40 µM.

As to `CCCCCCCCCCN1C(=O)[C@@H]2[C@H](C1=O)[C@H]1CC[C@@H]2O1`, in the data set with Haemonchus contortus [1], the LD99 is 90 µM and the LC50 was found to be 30 µM.

Consider `N#C/C(=C\c1ccc[nH]1)c1ccccc1`, for which, in the data set on Haemonchus contortus [1], the LD99 turned out to be 100 µM and the LC50 worked out at 6 µM.

As to `N#C/C(=C\c1ccc[nH]1)c1ccc(Cl)c(Cl)c1`, in the data set on Haemonchus contortus [1], the LD99 amounted to 12.5 µM and the LC50 worked out at 7 µM.

As to `N#C/C(=C\c1ccc[nH]1)c1ccc(Cl)cc1`, in the data set on Haemonchus contortus [1], the LD99 was 25 µM and the LC50 came to 10 µM.

Consider `O=C(O)C1C(C(=O)NCCCc2ccccc2)[C@H]2CC[C@@H]1O2` (some centres not stated), for which the concentration for 50% growth inhibition (GI50) at 72 h in [2], in data set [3], in [4], in data set [6], in [7] and in data set [8] was 10 µM throughout. The GI50 at 72 h in data set [9], in [10] and in [11] was 10 µM each time. Further, the inhibition result with Haemonchus contortus [5] was “inactive”.

As to `O=C(O)CCCNC(=O)C1C(C(=O)O)[C@@H]2CC[C@H]1O2` (some centres not stated), the GI50 at 72 h in [2], in data set [3], in data set [4], in data set [6], in data set [7] and in data set [8] was 10 µM in each case. For the same compound, the GI50 at 72 h in data set [9], in data set [10] and in [11] was 10 µM throughout. Also, the inhibition result with Haemonchus contortus [5] was “inactive”.

`O=C(O)C1C(C(=O)NCCc2ccccc2)[C@H]2CC[C@@H]1O2` (some centres not stated): the GI50 at 72 h in data set [2], in [3], in data set [4], in [6], in [7] and in [8] was 10 µM throughout. In addition, the GI50 at 72 h in [9], in [10] and in data set [11] was 10 µM in each case. In addition, the inhibition entry in the data set with Haemonchus contortus [5] is “inactive”.

As to `O=C(O)C1C(C(=O)Nc2ccccc2)[C@H]2CC[C@@H]1O2` (some centres not stated), the concentration for 50% growth inhibition (GI50) at 72 h in [2], in data set [3], in data set [4], in [6], in data set [7] and in data set [8] was 10 µM each time. For the same compound, the GI50 at 72 h in data set [9], in data set [10] and in data set [11] was 10 µM in each case. Further, the inhibition result with Haemonchus contortus [5] was “inactive”.

For the origin of these results see ChEMBL document CHEMBL1777719, “Norcantharidin analogues with nematocidal activity in Haemonchus contortus” (Bioorg Med Chem Lett, 2011).
